In the data set the test system is white outbred rats. Nature of the data set: Subacute toxicity, 90 days. The note with it: intramuscularly daily for 90 days, 1 μg/kg, 0.3 mg/kg, 3 mg/kg. It counts as in vivo. The protocol: Experimental animals were exposed daily to a single administration of the drug intramuscularly for 90 days in doses 1 μg/kg, 0.3 mg/kg, 3 mg/kg in 0.5 ml of sodium chloride solution. Animals of the control group were administered with the same amount of sodium chloride.
Within the whole period of study the animals were under daily observation. Behaviour of the animals, their rations and water consumption, the state of hair integument and mucous membranes were registered. The animals were weighed weekly. Prior to and on the 30th, 60th, and 90th days of the drug administration the morphological composition and properties of the peripheral blood were examined. Upon the experiment completion biochemical and coagulologic indices of blood were investigated.

Residues, ends and D or L forms follow the SMILES beside them.

On to `C[C@H](N)C(=O)N[C@@H](CCC(=O)O)C(=O)N[C@@H](CC(=O)O)C(=O)NCC(=O)O` [L-Ala-L-Glu-L-Asp-Gly tetrapeptide, L-alanyl-L-glutamyl-L-aspartyl-glycine] (H-AEDG-OH), for which the “Side effects, subacute toxicity” value was “absence of side effects”.
